Measurements from ChEMBL document CHEMBL3044631, “Synthesis of 2-[4,5-dimethyl-1-(phenylamino)-1H-imidazol-2-ylthio]-N-(thiazole-2-yl)acetamide derivatives and their anticancer activities” (2013).

Key:
Assay type in all cases: functional
SR = assay: Anticancer activity against Homo sapiens (human) SR cells assessed as cell growth promotion at 10 uM after 48 hr by SRB assay
NCI-H522 [1] = assay: Anticancer activity against Homo sapiens (human) NCI-H522 cells assessed as cell growth promotion at 10 uM after 48 hr by SRB assay
TK-10 = assay: Anticancer activity against Homo sapiens (human) TK10 cells assessed as cell growth promotion at 10 uM after 48 hr by SRB assay
HCT-15 = assay: Anticancer activity against Homo sapiens (human) HCT15 cells assessed as cell growth promotion at 10 uM after 48 hr by SRB assay
PC-3 = assay: Anticancer activity against Homo sapiens (human) PC3 cells assessed as cell growth promotion at 10 uM after 48 hr by SRB assay
NCI-H226 = assay: Anticancer activity against Homo sapiens (human) NCI-H226 cells assessed as cell growth promotion at 10 uM after 48 hr by SRB assay
MOLT-4 = assay: Anticancer activity against Homo sapiens (human) MOLT4 cells assessed as cell growth promotion at 10 uM after 48 hr by SRB assay
ACHN = assay: Anticancer activity against Homo sapiens (human) ACHN cells assessed as cell growth promotion at 10 uM after 48 hr by SRB assay
IGROV-1 [2] = assay: Anticancer activity against Homo sapiens (human) IGROV1 cells assessed as cell growth promotion at 10 uM after 48 hr by SRB assay
SF-539 = assay: Anticancer activity against Homo sapiens (human) SF539 cells assessed as cell growth promotion at 10 uM after 48 hr by SRB assay
RXF 393 = assay: Anticancer activity against Homo sapiens (human) RXF393 cells assessed as cell growth promotion at 10 uM after 48 hr by SRB assay
NCI-H322M [3] = assay: Anticancer activity against Homo sapiens (human) NCI-H322M cells assessed as cell growth promotion at 10 uM after 48 hr by SRB assay
Hs-578T [4] = assay: Anticancer activity against Homo sapiens (human) Hs 578T cells assessed as cell growth promotion at 10 uM after 48 hr by SRB assay
NCI/ADR-RES [5] = assay: Anticancer activity against Homo sapiens (human) NCI/ADR-RES cells assessed as cell growth promotion at 10 uM after 48 hr by SRB assay
HCT-116 = assay: Anticancer activity against Homo sapiens (human) HCT116 cells assessed as cell growth promotion at 10 uM after 48 hr by SRB assay
RPMI-8226 = assay: Anticancer activity against Homo sapiens (human) RPMI8226 cells assessed as cell growth promotion at 10 uM after 48 hr by SRB assay
COLO 205 = assay: Anticancer activity against Homo sapiens (human) COLO205 cells assessed as cell growth promotion at 10 uM after 48 hr by SRB assay
SK-OV-3 = assay: Anticancer activity against Homo sapiens (human) SKOV3 cells assessed as cell growth promotion at 10 uM after 48 hr by SRB assay
UACC-62 [6] = assay: Anticancer activity against Homo sapiens (human) UACC62 cells assessed as cell growth promotion at 10 uM after 48 hr by SRB assay
SW-620 = assay: Anticancer activity against Homo sapiens (human) SW620 cells after 48 hr by SRB assay; settings: SW-620, 48 h
NCI-H322M [7] = assay: Anticancer activity against Homo sapiens (human) NCI-H322M cells after 48 hr by SRB assay
DU-145 = assay: Anticancer activity against Homo sapiens (human) DU145 cells after 48 hr by SRB assay; settings: DU-145, 48 h
MDA-MB-231 = assay: Anticancer activity against Homo sapiens (human) MDA-MB-231/ATCC cells after 48 hr by SRB assay; settings: MDA-MB-231, 48 h
SK-MEL-2 = assay: Anticancer activity against Homo sapiens (human) SK-MEL-2 cells after 48 hr by SRB assay; settings: SK-MEL-2, 48 h
KM12 = assay: Anticancer activity against Homo sapiens (human) KM12 cells after 48 hr by SRB assay; settings: KM12, 48 h
SF-268 = assay: Anticancer activity against Homo sapiens (human) SF268 cells after 48 hr by SRB assay; settings: SF-268, 48 h
UACC-62 [8] = assay: Anticancer activity against Homo sapiens (human) UACC62 cells after 48 hr by SRB assay; settings: UACC-62, 48 h
Hs-578T [9] = assay: Anticancer activity against Homo sapiens (human) Hs 578T cells after 48 hr by SRB assay
EKVX = assay: Anticancer activity against Homo sapiens (human) EKVX cells after 48 hr by SRB assay
UO-31 = assay: Anticancer activity against Homo sapiens (human) UO31 cells after 48 hr by SRB assay; settings: UO-31, 48 h
OVCAR-8 = assay: Anticancer activity against Homo sapiens (human) OVCAR8 cells after 48 hr by SRB assay; settings: OVCAR-8, 48 h
NCI/ADR-RES [10] = assay: Anticancer activity against Homo sapiens (human) NCI/ADR-RES cells after 48 hr by SRB assay
IGROV-1 [11] = assay: Anticancer activity against Homo sapiens (human) IGROV1 cells after 48 hr by SRB assay; settings: IGROV-1, 48 h
MDA-MB-435 = assay: Anticancer activity against Homo sapiens (human) MDA-MB-435 cells after 48 hr by SRB assay; settings: MDA-MB-435, 48 h
NCI-H522 [12] = assay: Anticancer activity against Homo sapiens (human) NCI-H522 cells after 48 hr by SRB assay; settings: NCI-H522, 48 h
[13] = read-out: LC50 (the source's name)

Compound: COc1ccc(Nn2c(SCC(=O)Nc3nccs3)nc(C)c2C)cc1
- Activity (SR): 104%
- Activity (NCI-H522 [1]): 95.16%
- Activity (TK-10): 105.37%
- Activity (HCT-15): 100.06%
- Activity (PC-3): 103.43%
- Activity (NCI-H226): 105.15%
- Activity (MOLT-4): 100.89%
- Activity (ACHN): 100.51%
- Activity (IGROV-1 [2]): 102.01%
- Activity (SF-539): 101.05%
- Activity (RXF 393): 126.87%
- Activity (NCI-H322M [3]): 110.58%
- Activity (Hs-578T [4]): 109.7%
- Activity (NCI/ADR-RES [5]): 92.35%
- Activity (HCT-116): 106.93%
- Activity (RPMI-8226): 102.22%
- Activity (COLO 205): 107.27%
- Activity (SK-OV-3): 108.56%
- Activity (UACC-62 [6]): 95.78%

Compound: Cc1ccc(Nn2c(SCC(=O)Nc3nc(-c4ccccc4)cs3)nc(C)c2C)cc1
- GI50 (SW-620): 8.03 µM
- LC50 (concentration killing 50% of cells) (SW-620): > 100 µM
- TGI (SW-620): > 100 µM
- Activity (SR): 72.64%
- Activity (NCI-H522 [1]): 49.7%
- GI50 (NCI-H322M [7]): 10.2 µM
- TGI (NCI-H322M [7]): > 100 µM
- CC50 (NCI-H322M [7]; [13]): > 100 µM
- GI50 (DU-145): 9.75 µM
- LC50 (concentration killing 50% of cells) (DU-145): > 100 µM
- TGI (DU-145): 64.6 µM
- Activity (TK-10): 72.7%
- Activity (HCT-15): 67.18%
- Activity (PC-3): 71.8%
- Activity (NCI-H226): 46.34%
- Activity (MOLT-4): 54.72%
- Activity (ACHN): 60.88%
- GI50 (MDA-MB-231): 3.34 µM
- TGI (MDA-MB-231): > 100 µM
- CC50 (MDA-MB-231; [13]): > 100 µM
- GI50 (SK-MEL-2): 7.58 µM
- LC50 (concentration killing 50% of cells) (SK-MEL-2): > 100 µM
- TGI (SK-MEL-2): 35.3 µM
- Activity (IGROV-1 [2]): 86%
- GI50 (KM12): 4.13 µM
- LC50 (concentration killing 50% of cells) (KM12): > 100 µM
- TGI (KM12): 19.1 µM
- Activity (SF-539): 73.68%
- Activity (RXF 393): 61.47%
- Activity (NCI-H322M [3]): 96.01%
- GI50 (SF-268): 9.1 µM
- LC50 (SF-268): > 100 µM
- TGI (SF-268): > 100 µM
- Activity (Hs-578T [4]): 105.97%
- GI50 (UACC-62 [8]): 3.15 µM
- LC50 (UACC-62 [8]): > 100 µM
- TGI (UACC-62 [8]): > 100 µM
- GI50 (Hs-578T [9]): 3.41 µM
- TGI (Hs-578T [9]): > 100 µM
- CC50 (Hs-578T [9]; [13]): > 100 µM
- GI50 (EKVX): 1390 nM
- TGI (EKVX): 5.61 µM
- CC50 (EKVX; [13]): > 100 µM
- GI50 (UO-31): 2890 nM
- TGI (UO-31): > 100 µM
- CC50 (UO-31; [13]): > 100 µM
- GI50 (OVCAR-8): 3.79 µM
- TGI (OVCAR-8): > 100 µM
- CC50 (OVCAR-8; [13]): > 100 µM
- GI50 (NCI/ADR-RES [10]): 3.04 µM
- LC50 (NCI/ADR-RES [10]): > 100 µM
- TGI (NCI/ADR-RES [10]): 22.2 µM
- Activity (NCI/ADR-RES [5]): 34.4%
- Activity (HCT-116): 40.22%
- Activity (RPMI-8226): 55.78%
- GI50 (IGROV-1 [11]): 4.59 µM
- LC50 (concentration killing 50% of cells) (IGROV-1 [11]): > 100 µM
- TGI (IGROV-1 [11]): > 100 µM
- GI50 (MDA-MB-435): 2660 nM
- LC50 (concentration killing 50% of cells) (MDA-MB-435): > 100 µM
- TGI (MDA-MB-435): 9.54 µM
- Activity (COLO 205): 32.48%
- Activity (SK-OV-3): 69.62%
- Activity (UACC-62 [6]): 51.82%
- GI50 (NCI-H522 [12]): 2970 nM
- LC50 (50% lethal concentration) (NCI-H522 [12]): > 100 µM
- TGI (NCI-H522 [12]): 86.8 µM

Compound: CCOC(=O)c1csc(NC(=O)CSc2nc(C)c(C)n2Nc2ccc(C)cc2)n1
- Activity (SR): 87.01%
- Activity (NCI-H522 [1]): 76.3%
- Activity (TK-10): 77.84%
- Activity (HCT-15): 98.05%
- Activity (PC-3): 88.3%
- Activity (NCI-H226): 70.72%
- Activity (MOLT-4): 92.25%
- Activity (ACHN): 76.52%
- Activity (IGROV-1 [2]): 95.15%
- Activity (SF-539): 73.62%
- Activity (RXF 393): 38.47%
- Activity (NCI-H322M [3]): 97.18%
- Activity (Hs-578T [4]): 139.32%
- Activity (NCI/ADR-RES [5]): 70.04%
- Activity (HCT-116): 68.84%
- Activity (RPMI-8226): 72.05%
- Activity (COLO 205): 80.51%
- Activity (SK-OV-3): 90.71%
- Activity (UACC-62 [6]): 62.91%

Compound: Cc1nc(SCC(=O)Nc2nccs2)n(Nc2ccccc2)c1C
- Activity (SR): 100.2%
- Activity (NCI-H522 [1]): 102.09%
- Activity (TK-10): 111.75%
- Activity (HCT-15): 97.16%
- Activity (PC-3): 93.56%
- Activity (NCI-H226): 100.29%
- Activity (MOLT-4): 108.49%
- Activity (ACHN): 95.27%
- Activity (IGROV-1 [2]): 123.21%
- Activity (SF-539): 86.84%
- Activity (RXF 393): 83.96%
- Activity (NCI-H322M [3]): 118.03%
- Activity (Hs-578T [4]): 115.31%
- Activity (NCI/ADR-RES [5]): 96.1%
- Activity (HCT-116): 93.75%
- Activity (RPMI-8226): 100.95%
- Activity (COLO 205): 117.71%
- Activity (SK-OV-3): 102.5%
- Activity (UACC-62 [6]): 94.24%
